From PubChem BioAssay AID248 (DTP/NCI, 2004)
Inconclusive results and toxic doses are left out. Rule as the data show it: active = T/C of 150% or more; inactive = T/C below 125%.

System: L1210 leukemia ip in BDF1 mice, survival T/C
Experiment: NCI In Vivo Anticancer Drug Screen. Data for tumor model L1210 Leukemia (intraperitoneal) in B6D2F1 (BDF1) mice
Details: endpoint: mean survival time, higher = longer survival
How it was run: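 Antitumor effect is assessed in tumor-bearing animals. Survival in the compound arm is compared with a vehicle-dosed control arm and expressed as their quotient.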

[1] = dose: 100.0 mg/kg/injection, schedule: Q04DX002 (ip), vehicle: Klucel (hydroxypropylcellulose) (HPC)
[2] = dose: 200.0 mg/kg/injection, schedule: Q04DX002 (ip), vehicle: Klucel (hydroxypropylcellulose) (HPC)
[3] = dose: 400.0 mg/kg/injection, schedule: Q04DX002 (ip), vehicle: Klucel (hydroxypropylcellulose) (HPC)
[4] = dose: 100.0 mg/kg/injection, schedule: Q01DX001 (ip), vehicle: saline
[5] = dose: 200.0 mg/kg/injection, schedule: Q01DX001 (ip), vehicle: saline
[6] = dose: 400.0 mg/kg/injection, schedule: Q01DX001 (ip), vehicle: saline
[7] = dose: 100.0 mg/kg/injection, schedule: Q04DX003 (ip), vehicle: Klucel (hydroxypropylcellulose) (HPC)
[8] = dose: 200.0 mg/kg/injection, schedule: Q04DX003 (ip), vehicle: Klucel (hydroxypropylcellulose) (HPC)
[9] = dose: 400.0 mg/kg/injection, schedule: Q04DX003 (ip), vehicle: Klucel (hydroxypropylcellulose) (HPC)
[10] = dose: 50.0 mg/kg/injection, schedule: Q01DX009 (ip), vehicle: saline
[11] = dose: 6.25 mg/kg/injection, schedule: Q01DX009 (ip), vehicle: saline
[12] = dose: 12.5 mg/kg/injection, schedule: Q01DX009 (ip), vehicle: saline
[13] = dose: 25.0 mg/kg/injection, schedule: Q01DX009 (ip), vehicle: saline
[14] = dose: 50.0 mg/kg/injection, schedule: Q01DX001 (ip), vehicle: carboxymethylcellulose (CMC)
[15] = dose: 100.0 mg/kg/injection, schedule: Q01DX001 (ip), vehicle: carboxymethylcellulose (CMC)

Measured: T/C

O=C(O)c1c[nH]c2c(Cl)cccc2c1=O
inactive: [1] 100 % of control | [2] 96 % of control | [3] 107 % of control

O=c1ccn(Cc2cccc(Oc3ccccc3)c2)c(=O)[nH]1
inactive: dose: 100.0 mg/kg/injection, schedule: Q01DX001 (ip), vehicle: saline with Tween-80 92 % of control | dose: 200.0 mg/kg/injection, schedule: Q01DX001 (ip), vehicle: saline with Tween-80 93 % of control | dose: 400.0 mg/kg/injection, schedule: Q01DX001 (ip), vehicle: saline with Tween-80 92 % of control

O=C(O)c1c[nH]c2c(ccc3ccccc32)c1=O
inactive: [1] 103 % of control | [2] 122 % of control | [3] 92 % of control

Nc1c(Cl)cc(S(=O)(=O)O)cc1Br
inactive: dose: 50.0 mg/kg/injection, schedule: Q01DX001 (ip), vehicle: saline 101 % of control | [4] 103 % of control | [5] 101 % of control | [6] 101 % of control

Nc1ccc(CC(=O)O)c(N)c1
inactive: [1] 87 % of control | [2] 97 % of control | [3] 97 % of control

BrC1CC2OC2C2OC12 (stereo unspecified)
inactive: dose: 25.0 mg/kg/injection, schedule: Q04DX002 (ip), vehicle: saline 108 % of control | dose: 50.0 mg/kg/injection, schedule: Q04DX002 (ip), vehicle: saline 105 % of control | [4] 100 % of control | dose: 100.0 mg/kg/injection, schedule: Q04DX002 (ip), vehicle: saline 102 % of control

Oc1ccc(C2=CSC3=NCCN23)cc1
inactive: dose: 5.0 mg/kg/injection, schedule: Q01DX001 (ip), vehicle: saline 94 % of control | dose: 10.0 mg/kg/injection, schedule: Q01DX001 (ip), vehicle: saline 93 % of control | dose: 20.0 mg/kg/injection, schedule: Q01DX001 (ip), vehicle: saline 93 % of control | dose: 40.0 mg/kg/injection, schedule: Q01DX001 (ip), vehicle: saline 96 % of control | dose: 80.0 mg/kg/injection, schedule: Q01DX001 (ip), vehicle: saline 104 % of control

O=C(O)c1cc(S(=O)(=O)F)ccc1O
inactive: dose: 100.0 mg/kg/injection, schedule: Q04DX002 (ip), vehicle: saline with Tween-80 101 % of control | dose: 200.0 mg/kg/injection, schedule: Q04DX002 (ip), vehicle: saline with Tween-80 101 % of control | dose: 400.0 mg/kg/injection, schedule: Q04DX002 (ip), vehicle: saline with Tween-80 104 % of control

COc1cc2c(cc1O)C(Cc1ccc(OC)c(OC)c1)N(C)CC2 (stereo unspecified)
inactive: dose: 75.0 mg/kg/injection, schedule: Q01DX001 (ip), vehicle: other 93 % of control | dose: 150.0 mg/kg/injection, schedule: Q01DX001 (ip), vehicle: other 101 % of control

COCC1OC(Nc2ccccc2)C(OC)C(OC)C1OC (stereo unspecified)
inactive: dose: 100.0 mg/kg/injection, schedule: Q04DX003 (ip), vehicle: saline with Tween-80 89 % of control | dose: 200.0 mg/kg/injection, schedule: Q04DX003 (ip), vehicle: saline with Tween-80 94 % of control | dose: 400.0 mg/kg/injection, schedule: Q04DX003 (ip), vehicle: saline with Tween-80 89 % of control

CC1(C)C(=C(C#N)C#N)C(C)(C)C1=C(C#N)C#N
inactive: [4] 114 % of control | [5] 96 % of control | [6] 90 % of control

O=[N+]([O-])c1ccc(/C=C/c2ncccn2)o1
inactive: [7] 97 % of control | [8] 103 % of control | [9] 97 % of control

O=C(O)c1c[nH]c2c(Cl)cc(Cl)cc2c1=O
inactive: [5] 94 % of control | [6] 87 % of control

CCC/C=N/Nc1ccnc(SC)n1
inactive: dose: 100.0 mg/kg/injection, schedule: Q01DX009 (ip), vehicle: gum acacia 97 % of control

CC(=O)Nc1ccc(-c2ccccc2)cc1
inactive: dose: 100.0 mg/kg/injection, schedule: Q01DX001 (ip), vehicle: Klucel (hydroxypropylcellulose) (HPC) 99 % of control | dose: 100.0 mg/kg/injection, schedule: Q01DX009 (ip), vehicle: saline with Tween-80 110 % of control | dose: 200.0 mg/kg/injection, schedule: Q01DX001 (ip), vehicle: Klucel (hydroxypropylcellulose) (HPC) 99 % of control | dose: 200.0 mg/kg/injection, schedule: Q01DX009 (ip), vehicle: saline with Tween-80 86 % of control

CN(C)c1ccc(C2OC3(CCCCC3)C[N+]23CCCC3)cc1 (stereo unspecified)
inactive: dose: 100.0 mg/kg/injection, schedule: Q04DX003 (ip), vehicle: acetone 102 % of control

COC(=O)CC/C(C)=N\NC(=O)c1ccc[n+](C)c1
inactive: [10] 100 % of control | dose: 100.0 mg/kg/injection, schedule: Q01DX009 (ip), vehicle: saline 96 % of control | dose: 200.0 mg/kg/injection, schedule: Q01DX009 (ip), vehicle: saline 93 % of control

O=[N+]([O-])c1ccc2c(c1)[As](=O)(O)c1cc([N+](=O)[O-])ccc1-2
inactive: dose: 75.0 mg/kg/injection, schedule: Q01DX001 (ip), vehicle: saline 120 % of control

COC(=O)[C@@H]1c2cc3c(c(O)c2[C@@H](OC)C[C@@]1(C)O)C(=O)c1c(O)cc2c(c1C3=O)OC1O[C@@]2(C)[C@H](O)[C@@H](N(C)C)[C@@H]1O
inactive: dose: 3.12 mg/kg/injection, schedule: Q01DX015 (ip), vehicle: carboxymethylcellulose (CMC) 104 % of control | [11] 106 % of control | dose: 6.25 mg/kg/injection, schedule: Q01DX015 (ip), vehicle: carboxymethylcellulose (CMC) 108 % of control | [12] 112 % of control | dose: 12.5 mg/kg/injection, schedule: Q01DX015 (ip), vehicle: carboxymethylcellulose (CMC) 120 % of control | [13] 109 % of control | [14] 105 % of control | [10] 112 % of control | dose: 50.0 mg/kg/injection, schedule: Q01DX015 (ip), vehicle: carboxymethylcellulose (CMC) 122 % of control | [15] 117 % of control

CC(=O)Oc1ccc2c(c1)oc(=O)c1ccc(C)cc12
inactive: [7] 92 % of control | [8] 87 % of control | [9] 92 % of control

O=[N+]([O-])c1ccccc1C1OCCO1
inactive: [14] 95 % of control | [15] 93 % of control | dose: 200.0 mg/kg/injection, schedule: Q01DX001 (ip), vehicle: carboxymethylcellulose (CMC) 101 % of control | dose: 400.0 mg/kg/injection, schedule: Q01DX001 (ip), vehicle: carboxymethylcellulose (CMC) 93 % of control

Oc1cc(O)c(O)cc1O
inactive: [11] 102 % of control | dose: 6.25 mg/kg/injection, schedule: Q04DX003 (ip), vehicle: saline with Tween-80 93 % of control | [12] 102 % of control | dose: 12.5 mg/kg/injection, schedule: Q04DX003 (ip), vehicle: saline with Tween-80 97 % of control | [13] 110 % of control | dose: 25.0 mg/kg/injection, schedule: Q04DX003 (ip), vehicle: saline with Tween-80 98 % of control

C=C(C)C(Br)=C(C)C
inactive: dose: 100.0 mg/kg/injection, schedule: Q01DX001 (ip), vehicle: DMSO 96 % of control

IC[P+](c1ccccc1)(c1ccccc1)c1ccccc1
inactive: dose: 75.0 mg/kg/injection, schedule: Q01DX001 (ip), vehicle: carboxymethylcellulose (CMC) 106 % of control
